Data: US20260022142A1, “MACROCYCLIC IMMUNOMODULATORS” (Bristol-Myers Squibb Company, priority 2022, published 2026)
Numbered stars: 1 amine (or outer) side, 2 acyl side, 3 side chain; on linkers, the order of the positions; unused ones are H or OH. Bridge positions count the residues as written; N and C are the ends. Square brackets hold non-standard residues; d marks the D form. Peptide text beside a SMILES is read from it. * marks the point of attachment. ξ: configuration not given here. Trp(βS-Me) = C[C@@H](c1c[nH]c2ccccc12)[C@H](N)C(=O)O; Phe(4-COOH) = N[C@@H](Cc1ccc(C(=O)O)cc1)C(=O)O; Bip = N[C@@H](Cc1ccc(-c2ccccc2)cc1)C(=O)O; Phe(3-Me) = Cc1cccc(C[C@H](N)C(=O)O)c1; βAsp = O=C(O)[C@H](CC(=O)[*:2])N[*:1]; NH(CH2)12COOH = O=C(O)CCCCCCCCCCCCN*; Val(3-OH) = CC(C)(O)[C@H](N)C(=O)O; hArg = N=C(N)NCCCC[C@H](N)C(=O)O; 4Pal = N[C@@H](Cc1ccncc1)C(=O)O; Cha = N[C@@H](CC1CCCCC1)C(=O)O; Cit = NC(=O)NCCC[C@H](N)C(=O)O; aThr = C[C@H](O)[C@H](N)C(=O)O; Thr(3ξ) = CC(O)[C@H](N)C(=O)O; 12Ado = NCCCCCCCCCCCC(=O)O; Carboxymethyl = O=C(O)C*; Orn = NCCC[C@H](N)C(=O)O; Aun = NCCCCCCCCCCC(=O)O; Dab = NCC[C@H](N)C(=O)O; Dap = NC[C@H](N)C(=O)O; AEEA = NCCOCCOCC(=O)O; Ac3c = NC1(C(=O)O)CC1; ξT = CC(O)C(N)C(=O)O

Molecular target: T1, PD-1/PD-L1 interaction (PE-labeled human PD-L1-Ig binding to Jurkat cell line over-expressing human PD-1) (Homo sapiens, UniProt Q15116)
T1 construct: expressed in transfected cells; host or cells: Jurkat
T1 sequence (Q15116 25-288): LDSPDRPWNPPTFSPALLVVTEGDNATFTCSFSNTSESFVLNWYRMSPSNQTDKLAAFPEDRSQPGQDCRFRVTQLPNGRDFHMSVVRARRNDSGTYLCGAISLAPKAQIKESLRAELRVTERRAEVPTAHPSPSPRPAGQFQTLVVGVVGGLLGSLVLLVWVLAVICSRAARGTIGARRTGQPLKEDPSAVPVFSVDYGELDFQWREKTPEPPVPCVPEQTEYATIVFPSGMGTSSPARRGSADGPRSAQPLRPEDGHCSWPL
Experiment: Jurkat-PD-1 Cell Binding High-Content Screening Assay (CBA)
Format: cell-based
Details: Jurkat cell line over-expressing human PD-1; PE-labeled PD-L1-Ig 20 nM final; read-out: Jurkat hPD1-PDL1 IC50
Procedure, shortened: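 Binding of fluorescent PD-L1-Ig (phycoerythrin on Ig tag, 20 nM final, 1 h) measured by high-content imaging of fixed, Hoechst-counterstained Jurkat-hPD-1 cells. Compound added 2 h at 37° C beforehand, in DMEM with 10% fetal calf serum.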

| Compound | IC50 [nM] |
| --- | --- |
| Cc1cccc(C[C@@H]2NC(=O)[C@H](CC(=O)O)NC(=O)[C@H](Cc3ccc(OCC(=O)O)cc3)NC(=O)[C@H](CCCNC(=N)N)NC(=O)CSC[C@@H](C(=O)N[C@@H](CCN)C(=O)NCCCCCCCCCCC(=O)O)NC(=O)[C@H](C(C)O)NC(=O)[C@H](C(C)C)NC(=O)[C@H](CC3CCCCC3)NC(=O)[C@H](CCN)NC(=O)[C@@H](CC(C)C)NC(=O)[C@H](CCC(N)=O)NC(=O)[C@H](Cc3ccc(O)cc3)NC(=O)[C@H](Cc3ccc(-c4ccccc4)cc3)NC(=O)[C@H](Cc3ccc(O)cc3)NC2=O)c1 (stereo partly drawn) [Compound 3370] ({CH2CO}-RY(Carboxymethyl)D[Phe(3-Me)]Y[Bip]YQ[dL][Dab][Cha]V[Thr(3ξ)]C[Dab][Aun]-OH; thioether N-14) | 12.6 |
| Cc1cccc(C[C@@H]2NC(=O)[C@H](CC(=O)O)NC(=O)[C@H](Cc3ccc(OCC(=O)O)cc3)NC(=O)[C@H](CN)NC(=O)CSC[C@@H](C(=O)N[C@@H](CCCCN)C(=O)NCCCCCCCCCCC(=O)O)NC(=O)[C@H](C(C)O)NC(=O)[C@H](C(C)C)NC(=O)[C@H](CC3CCCCC3)NC(=O)[C@H](Cc3cnc[nH]3)NC(=O)[C@@H](CC(C)C)NC(=O)[C@H](CCCN)NC(=O)[C@H](CCC(=O)O)NC(=O)[C@H](Cc3ccc(-c4ccccc4)cc3)NC(=O)[C@H](C(C)C)NC2=O)c1 (stereo partly drawn) [Compound 3160] ({CH2CO}-[Dap]Y(Carboxymethyl)D[Phe(3-Me)]V[Bip]E[Orn][dL]H[Cha]V[Thr(3ξ)]CK[Aun]-OH; thioether N-14) | 37.5 |
| Cc1cccc(C[C@@H]2NC(=O)[C@H](CC(=O)O)NC(=O)[C@H](Cc3ccc(O)cc3)NC(=O)[C@H](CC(N)=O)NC(=O)CSC[C@@H](C(=O)N[C@@H](CCCN)C(=O)NCCCCCCCCCCC(=O)O)NC(=O)C(C(C)O)NC(=O)[C@H](C(C)C)NC(=O)[C@H](CC(C)C)NC(=O)[C@H](CCN)NC(=O)[C@@H](CC(C)C)NC(=O)[C@H](CCCN)NC(=O)[C@H](CCCNC(N)=O)NC(=O)[C@H](Cc3ccc(-c4ccccc4)cc3)NC(=O)[C@H](C(C)C)NC2=O)c1 (stereo partly drawn) [Compound 2774] ({CH2CO}-NYD[Phe(3-Me)]V[Bip][Cit][Orn][dL][Dab]LV[ξT]C[Orn][Aun]-OH; thioether N-14) | 71.9 |
| Cc1cccc(C[C@@H]2NC(=O)[C@H](CC(=O)O)NC(=O)[C@H](Cc3ccc(OCC(=O)O)cc3)NC(=O)[C@H](C(C)O)NC(=O)CSC[C@@H](C(=O)NCCOCCOCC(=O)NCCCCCCCCCCC(=O)O)NC(=O)[C@H](C(C)O)NC(=O)[C@H](C(C)C)NC(=O)[C@H](CC3CCCCC3)NC(=O)[C@H](CCN)NC(=O)[C@@H](CC(C)C)NC(=O)[C@H](CCCN)NC(=O)[C@H](CCCNC(N)=O)NC(=O)[C@H](Cc3ccc(-c4ccccc4)cc3)NC(=O)[C@H](C(C)C)NC2=O)c1 (stereo partly drawn) [Compound 3460] ({CH2CO}-[Thr(3ξ)]Y(Carboxymethyl)D[Phe(3-Me)]V[Bip][Cit][Orn][dL][Dab][Cha]V[Thr(3ξ)]C[AEEA][Aun]-OH; thioether N-14) | 17 |
| CC(C)C[C@H]1NC(=O)[C@H](CCCN)NC(=O)[C@H](C(C)C)NC(=O)[C@H](Cc2ccc(-c3ccccc3)cc2)NC(=O)[C@H](C(C)C)NC(=O)[C@H](Cc2c[nH]c3ccccc23)NC(=O)[C@H](CC(=O)O)NC(=O)[C@H](Cc2ccc(OCC(=O)O)cc2)NC(=O)[C@H](CCCCNC(=N)N)NC(=O)CSC[C@@H](C(=O)NCCOCCOCC(=O)N[C@@H](CCCCN)C(=O)NCCCCCCCCCCC(=O)O)NC(=O)[C@H]([C@H](C)O)NC(=O)[C@H](C(C)C)NC(=O)[C@H](CC2CCCCC2)NC(=O)[C@H](CC(N)=O)NC1=O [Compound 3163] ({CH2CO}-[hArg]Y(Carboxymethyl)DWV[Bip]V[Orn][dL]N[Cha]V[aThr]C[AEEA]K[Aun]-OH; thioether N-14) | 22.3 |
| CC[C@H](C)[C@@H]1NC(=O)[C@H](Cc2ccc(-c3ccccc3)cc2)NC(=O)[C@H](C(C)C)NC(=O)[C@H](Cc2cccc(C)c2)NC(=O)[C@H](CC(=O)O)NC(=O)[C@H](Cc2ccc(C(=O)O)cc2)NC(=O)[C@H](Cc2ccncc2)NC(=O)CSC[C@@H](C(=O)NCCOCCOCC(=O)N[C@@H](CCCNC(=N)N)C(=O)NCCCCCCCCCCC(=O)O)NC(=O)[C@H]([C@@H](C)O)NC(=O)[C@H](C(C)C)NC(=O)[C@H](CC2CCCCC2)NC(=O)[C@H](CCN)NC(=O)[C@@H](CC(C)C)NC(=O)[C@H](CCCN)NC1=O [Compound 1192] ({CH2CO}-[4Pal][Phe(4-COOH)]D[Phe(3-Me)]V[Bip]I[Orn][dL][Dab][Cha]VTC[AEEA]R[Aun]-OH; thioether N-14) | 45.5 |

Now from value to compound:

| IC50 [nM] | Compound |
| --- | --- |
| 17.1 | Cc1cccc(C[C@@H]2NC(=O)[C@H](CC(=O)O)NC(=O)[C@H](Cc3ccc(OCC(=O)O)cc3)NC(=O)[C@H](CN)NC(=O)CSC[C@@H](C(=O)N[C@@H](CCC(=O)O)C(=O)NCCCCCCCCCCC(=O)O)NC(=O)[C@H]([C@@H](C)O)NC(=O)[C@H](C(C)C)NC(=O)[C@H](CC3CCCCC3)NC(=O)[C@H](CCN)NC(=O)[C@@H](CC(C)C)NC(=O)[C@H](CCCN)NC(=O)[C@H](CCCNC(N)=O)NC(=O)[C@H](Cc3ccc(-c4ccccc4)cc3)NC(=O)[C@H](C(C)C)NC2=O)c1 [Compound 1027] ({CH2CO}-[Dap]Y(Carboxymethyl)D[Phe(3-Me)]V[Bip][Cit][Orn][dL][Dab][Cha]VTCE[Aun]-OH; thioether N-14) |
| 6.9 | Cc1cccc(C[C@@H]2NC(=O)[C@H](CC(=O)O)NC(=O)[C@H](Cc3ccc(OCC(=O)O)cc3)NC(=O)[C@H](CCN)NC(=O)CSC[C@@H](C(=O)N[C@@H](CCN)C(=O)NCCOCCOCC(=O)NCCOCCOCC(=O)NCCCCCCCCCCCCC(=O)O)NC(=O)[C@H](CO)NC(=O)[C@H](C(C)(C)O)NC(=O)[C@H](CC3CCCCC3)NC(=O)[C@H](CCN)NC(=O)[C@@H](CC(C)C)NC(=O)[C@H](CCCN)NC(=O)[C@H](Cc3ccc(OCC(=O)O)cc3)NC(=O)[C@H](Cc3ccc(-c4ccccc4)cc3)NC(=O)[C@H](Cc3ccc(OCC(=O)O)cc3)NC2=O)c1 [Compound 3813] ({CH2CO}-[Dab]Y(Carboxymethyl)D[Phe(3-Me)]Y(Carboxymethyl)[Bip]Y(Carboxymethyl)[Orn][dL][Dab][Cha][Val(3-OH)]SC[Dab][AEEA][AEEA]-{NH(CH2)12COOH}; thioether N-14) |
| 14.9 | CC(C)C[C@H]1NC(=O)[C@H](CCCN)NC(=O)[C@H](C(C)C)NC(=O)[C@H](Cc2ccc(-c3ccccc3)cc2)NC(=O)[C@H](C(C)C)NC(=O)[C@H](Cc2c[nH]c3ccccc23)NC(=O)[C@H](CC(=O)O)NC(=O)[C@H](Cc2ccc(OCC(=O)O)cc2)NC(=O)[C@H](CCCCNC(=N)N)NC(=O)CSC[C@@H](C(=O)NCCOCCOCC(=O)N[C@@H](CCCCN)C(=O)NCCCCCCCCCCCC(=O)O)NC(=O)[C@H](CO)NC(=O)[C@H](C(C)C)NC(=O)[C@H](CC2CCCCC2)NC(=O)[C@H](CCN)NC1=O [Compound 3154] ({CH2CO}-[hArg]Y(Carboxymethyl)DWV[Bip]V[Orn][dL][Dab][Cha]VSC[AEEA]K[12Ado]-OH; thioether N-14) |
| 7.9 | Cc1cccc(C[C@@H]2NC(=O)[C@H](CC(=O)O)NC(=O)[C@H](Cc3ccc(OCC(=O)O)cc3)NC(=O)[C@H](CN)NC(=O)CSC[C@@H](C(=O)N[C@@H](C)C(=O)N[C@@H](CC(=O)NCCCCCCCCCCC(=O)O)C(=O)O)NC(=O)[C@H]([C@@H](C)O)NC(=O)[C@H](C(C)C)NC(=O)[C@H](CC3CCCCC3)NC(=O)[C@H](CCN)NC(=O)[C@@H](CC(C)C)NC(=O)[C@H](CCCN)NC(=O)[C@H](CCCNC(N)=O)NC(=O)[C@H](Cc3ccc(-c4ccccc4)cc3)NC(=O)[C@H](C(C)C)NC2=O)c1 [Compound 1023] ({CH2CO}-[Dap]Y(Carboxymethyl)D[Phe(3-Me)]V[Bip][Cit][Orn][dL][Dab][Cha]VTCA[βAsp][Aun]-OH; thioether N-14) |
| 3.1 | Cc1cccc(C[C@@H]2NC(=O)[C@H](CC(=O)O)NC(=O)[C@H](Cc3ccc(OCC(=O)O)cc3)NC(=O)[C@H](CCCNC(=N)N)NC(=O)CSC[C@@H](C(=O)NC3(C(=O)NCCCCCCCCCCC(=O)O)CC3)NC(=O)[C@H](CCCN)NC(=O)[C@H](C(C)C)NC(=O)[C@H](CC3CCCCC3)NC(=O)[C@H](CCN)NC(=O)[C@@H](CC(C)C)NC(=O)[C@H](CCCN)NC(=O)[C@H](Cc3ccc(OCC(=O)O)cc3)NC(=O)[C@H](Cc3ccc(-c4ccccc4)cc3)NC(=O)[C@H](Cc3ccc(OCC(=O)O)cc3)NC2=O)c1 [Compound 2136] ({CH2CO}-RY(Carboxymethyl)D[Phe(3-Me)]Y(Carboxymethyl)[Bip]Y(Carboxymethyl)[Orn][dL][Dab][Cha]V[Orn]C[Ac3c][Aun]-OH; thioether N-14) |
| 38.5 | CC(C)C[C@H]1NC(=O)[C@H](CCCN)NC(=O)[C@H](CCCNC(N)=O)NC(=O)[C@H](Cc2ccc(-c3ccccc3)cc2)NC(=O)[C@H](C(C)C)NC(=O)[C@H]([C@@H](C)c2c[nH]c3ccccc23)NC(=O)[C@H](CC(=O)O)NC(=O)[C@H](Cc2ccc(OCC(=O)O)cc2)NC(=O)[C@H](CCCNC(=N)N)NC(=O)CSC[C@@H](C(=O)NC2(C(=O)NCCCCCCCCCCC(=O)O)CC2)NC(=O)[C@H]([C@@H](C)O)NC(=O)[C@H](C(C)C)NC(=O)[C@H](CC2CCCCC2)NC(=O)[C@H](CCN)NC1=O [Compound 2134] ({CH2CO}-RY(Carboxymethyl)D[Trp(βS-Me)]V[Bip][Cit][Orn][dL][Dab][Cha]VTC[Ac3c][Aun]-OH; thioether N-14) |
| 73.7 | CC(C)C[C@H]1NC(=O)[C@H](CCCN)NC(=O)[C@H](Cc2ccc(O)cc2)NC(=O)[C@H](Cc2ccc(-c3ccccc3)cc2)NC(=O)[C@H](C(C)C)NC(=O)[C@H](Cc2c[nH]c3ccccc23)NC(=O)[C@H](CC(=O)O)NC(=O)[C@H](Cc2ccc(OCC(=O)O)cc2)NC(=O)[C@H](C(C)(C)O)NC(=O)CSC[C@@H](C(=O)N[C@@H](CCN)C(=O)NCCCCCCCCCCC(=O)O)NC(=O)[C@H](C(C)O)NC(=O)[C@H](C(C)C)NC(=O)[C@H](CC2CCCCC2)NC(=O)[C@H](CCN)NC1=O (stereo partly drawn) [Compound 3414] ({CH2CO}-[Val(3-OH)]Y(Carboxymethyl)DWV[Bip]Y[Orn][dL][Dab][Cha]V[Thr(3ξ)]C[Dab][Aun]-OH; thioether N-14) |
